From patent publication US8491897B2, “Treatment of neuropathic pain using anti-thrombospondin antibodies” (The Board of Trustees of the Leland Stanford Junior …, priority 2007, dated 2013)
Entries after “also recorded” stand apart in the source; their conditions may differ.

Key:
RGCs = test: Inhibition of TSP-, astrocyte/ACM- or Hevin-induced synapse formation in RGC cultures; type: cell-based, rat
Method: RGCs were purified by sequential immunopanning to greater than 99.5% purity from P5 Sprague-Dawley rats (Simonsen Labs, Gilroy, Calif.), as previously described (Barres et. al. (1988) Neuron 9, 791). Approximately 30,000 RGCs were cultured per well in 24-well plates (Falcon) on glass (Assistant) or Aclar 22C (Allied Signal) coverslips coated with poly-D-lysine (10 μg/ml) followed by laminin (2 μg/ml). RGCs were cultured in 600 μl of serum-free medium, modified from Bottenstein and Sato (1979), containing Neurobasal (Gibco), bovine serum albumin, selenium, putrescine, triiodo-thyronine, transferrin, progesterone, pyruvate (1 mM), glutamine (2 mM), CNTF (10 ng/ml), BDNF (50 ng/ml), insulin (5 μg/ml), and forskolin (10 μM). Recombinant human BDNF and CNTF were generously provided by Regeneron Pharmaceuticals.
Purified human platelet TSP1 was from either Sigma or Haematologic Technologies with similar results. Recombinant TSP2 was purified from serum-free medium conditioned by baculovirus-infected insect cells expressing mouse TSP2. Since purified TSP1 is readily available, we used this as the source of TSP in our experiments unless otherwise stated TSPs were used at a concentration of 5 μg/ml unless otherwise specified. RCGs were cultured for 4 days to allow robust process outgrowth and then cultured with TSPs for an additional 6 days. All other reagents were obtained from Sigma.
For preparation of ACM, confluent cultures of astrocytes in 10 cm dishes were washed 3× in PBS and fed with 10 mls RGC medium (without CNTF, BDNF or forskolin). ACM was harvested after 4-6 days of conditioning, filtered through a 0.2 μm syringe filter and concentrated 10× through a 5 KD molecular weight cut-off centrifuge concentrator (Millipore), unless otherwise indicated. ACM was used at a final concentration of 5× unless otherwise indicated. RCGs were cultured for 4 days to allow robust process outgrowth and then cultured with ACM or an astrocyte-feeding layer for an additional 6 days.
For synapse quantification, cultures were fixed for 7 min in 4% paraformaldehyde (PFA), washed 3× in phosphate buffered saline (PBS) and blocked in 100 μL of blocking buffer (50% Antibody Buffer (0.5% bovine serum albumin, 0.5% Triton X-100, 30 mM NaPO4, 750 mM NaCl, 5% normal goat serum, and 0.4% NaN3, pH 7.4), 50% goat serum (NGS), 0.1% Triton-X) for 30 min. After blocking, cover slips were washed 3× in PBS and 100 μL of primary antibody solution was added to each cover slip, consisting of rabbit anti-synaptotagmin (cytosolic domain, Synaptic Systems) and mouse anti-PSD-95 (6G6-1C9 clone, Affinity Bio Reagents) diluted 1:500 in antibody buffer. Coverslips were incubated overnight at 4° C., washed 3× in PBS, and incubated with 100 μL of secondary antibody solution containing Alexa-594 conjugated goat anti-rabbit and Alexa-488 conjugated goat anti-mouse (Molecular Probes) diluted 1:1000 in antibody buffer. Following incubation for 2 h at room temperature, coverslips were washed five times in PBS and mounted in Vectashield mounting medium with DAPI (Vector Laboratories Inc) on glass slides (VWR Scientific). For presynaptic activity assay, rabbit synaptotagmin antiserum was generated by immunization with a peptide corresponding to the N-terminal luminal portion of synaptotagmin. This serum was added at 1:500 to live cultures and incubated for 6 hours. Cells were then washed 3× in DPSB, fixed and stained as above, except for the omission of synaptotagmin antibody from the primary antibody solution.
Mounted coverslips were imaged using Nikon Diaphot and Eclipse epifluorescence microscopes (Nikon). Healthy cells that were at least 2 cell diameters from their nearest neighbor were identified and selected at random by eye using DAPI fluorescence. 8-bit digital images of the fluorescence emission at both 594 nm and 488 nm were recorded for each selected cell using a cooled monochrome CCD camera and SPOT image capture software (Diagnostic Instruments, Inc). […]

[1] = Weight gain and general health of injected pups; type: in vivo, mice; conditions: 400 mg/kg daily or 200 mg/kg three times a day i.p., vs saline
Method: In three independent experiments, two litters of wild type mice (n=3×12, FVB background) were given daily intraperitoneal injections of either a single dose of 400 mg/kg of GBP (Sigma-Aldrich) or a matching volume of saline solution (PBS). In one experiment the mice were injected with 200 mg/kg GBP (n=6) three times a day and the controls received the same volume of saline solution (n=6). […] Samples were blinded during analysis of the barrel cortex plasticity.

NCC1(CC(=O)O)CCCCC1 [Gabapentin, 1-(aminomethyl)cyclohexaneacetic acid]
effect on SD2-induced synapse formation (RGCs): completely inhibited synapse formation; also recorded: inhibited TSP induced synapse formation; also recorded: blocks TSPs synaptogenic effect; also recorded: blocks the synaptogenic activity of SD2 | effect on SD2-induced synapses (RGCs): synapse formation was not affected; also recorded: does not decrease synapse numbers | effect on already formed synapses (synapse number) (RGCs): did not decreased the synapse number | effect on synapse formation induced by Hevin (RGCs): does not inhibit the synapse formation; also recorded: did not affect | effect on synaptogenic effect of TSP2 EGF-like domains (RGCs): diminished its synaptogenic effect | effect on TSP and astrocyte-induced synapse formation (RGCs; 32 μM): strongly inhibited both TSP and astrocyte-induced synapse formation | effect on synapse formation induced by TSP1 or TSP2 EGF-like domains (RGCs; 32 μM): blocked the synaptogenic effect; also recorded: reduces the number of synapses formed by RGCs down to background levels | effect on synaptogenic effect of astrocyte conditioned media (ACM) (RGCs; 32 μM): diminished the synaptogenic effect of both rat and mouse ACM; also recorded: able to block all of ACMs synaptogenic activity | weight gain and general health [1]: showed no differences
